The text below walks through data of paper PMC10856041, “Chemical Epigenetic Regulation Secondary Metabolites Derived from Aspergillus sydowii DL1045 with Inhibitory Activities for Protein Tyrosine Phosphatases” (Molecules, 2024).

Converted amounts (≈) assume the structure as drawn. Where only a bound is given, the exact number is not on record here.

One data set relates to HDAC. The arrangement: method as in PMID 15808449, PMID 31201063. The conditions noted are these: cited from earlier work.
In another data set the test system is A-549 cells. The arrangement: method as in PMID 18505285. The conditions noted are these: read-out: IC50 cytotoxicity against A-549 cells; cited from earlier work.
The target of a further data set is T1, TCPTP (Homo sapiens, UniProt P17706).
T1 construct: incubated at 37 °C with 2.5 μg domain protein
T1 sequence (P17706 5-275 limits assumed): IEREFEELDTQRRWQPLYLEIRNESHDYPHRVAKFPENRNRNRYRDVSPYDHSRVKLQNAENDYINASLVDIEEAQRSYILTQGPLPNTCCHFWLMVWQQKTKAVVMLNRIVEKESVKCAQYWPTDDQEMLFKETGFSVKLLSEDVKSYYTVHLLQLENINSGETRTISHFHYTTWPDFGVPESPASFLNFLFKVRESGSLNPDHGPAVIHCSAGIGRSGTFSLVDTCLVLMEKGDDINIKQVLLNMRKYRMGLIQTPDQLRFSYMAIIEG
Kind of data set: PTP inhibitory activity (p-NPP degradation), TCPTP. It is filed as biochemical. The conditions noted are these: p-NPP substrate, 37 °C, 30 min, 405 nm; mean ± SD, n = 3. Here is the method:
(§1) The diabetes-related PTPs (PTP1B, TCPTP, SHP1 and CD45) inhibitory activity of the tested compounds was measured as previously described. The compounds were dissolved in DMSO and incubated at 37 °C with 2.5 μg domain protein, 20 mM 3-(N-Morpholino) propanesulfonic (MOPS), 9 mM p-nitrophenyl phosphate (p-NPP), 50 mM NaCl and 50 mM DTT, pH 7.2. The reaction was performed in a 96-well plate (DMSO as blank control). The reaction was started by adding the assay buffer (50 mM citrate (pH 6.0), 0.1 M NaCl, 1 mM EDTA, and 1 mM dithiothreitol) with a final volume of 150 μL and incubated at 37 °C for 30 min and 10 M NaOH was added to terminate the reaction. The inhibition of PTPs by tested compounds was assessed by measuring the degradation of p-NPP at a wavelength of 405 nm.

The next data set addresses T2, SHP1 (Homo sapiens, UniProt P29350).
T2 construct: incubated at 37 °C with 2.5 μg domain protein
T2 sequence (P29350 244-515 limits assumed): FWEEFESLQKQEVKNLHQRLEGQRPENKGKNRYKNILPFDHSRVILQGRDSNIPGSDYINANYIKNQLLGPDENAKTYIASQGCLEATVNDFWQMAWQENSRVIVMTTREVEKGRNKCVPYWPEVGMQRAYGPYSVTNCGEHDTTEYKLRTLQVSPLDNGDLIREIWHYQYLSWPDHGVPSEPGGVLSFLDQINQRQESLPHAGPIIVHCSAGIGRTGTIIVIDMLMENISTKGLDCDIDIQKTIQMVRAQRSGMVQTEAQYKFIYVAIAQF
Kind of data set: PTP inhibitory activity (p-NPP degradation), SHP1. In kind it is biochemical. Conditions: p-NPP substrate, 37 °C, 30 min, 405 nm; mean ± SD, n = 3. As to the method: as §1

The next data set concerns the target T3, PTP1B (Homo sapiens, UniProt P18031).
T3 construct: incubated at 37 °C with 2.5 μg domain protein
T3 sequence (P18031 3-277 limits assumed): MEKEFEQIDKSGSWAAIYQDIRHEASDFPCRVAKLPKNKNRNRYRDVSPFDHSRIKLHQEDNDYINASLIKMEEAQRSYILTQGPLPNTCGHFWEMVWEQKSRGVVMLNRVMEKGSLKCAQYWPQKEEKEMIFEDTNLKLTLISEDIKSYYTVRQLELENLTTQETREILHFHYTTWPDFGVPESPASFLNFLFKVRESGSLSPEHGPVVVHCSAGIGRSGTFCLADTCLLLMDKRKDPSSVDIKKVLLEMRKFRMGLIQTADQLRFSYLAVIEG
Kind of data set: PTP inhibitory activity (p-NPP degradation), PTP1B. In kind it is biochemical. The conditions noted are these: p-NPP substrate, 37 °C, 30 min, 405 nm; mean ± SD, n = 3. Here is the method: as §1

The test system of a further data set is nematode. Kind of data set: anti-nematode activity.
The target in the next data set is T4, CD45 (Homo sapiens, UniProt P08575).
T4 sequence (P08575 653-912 limits assumed): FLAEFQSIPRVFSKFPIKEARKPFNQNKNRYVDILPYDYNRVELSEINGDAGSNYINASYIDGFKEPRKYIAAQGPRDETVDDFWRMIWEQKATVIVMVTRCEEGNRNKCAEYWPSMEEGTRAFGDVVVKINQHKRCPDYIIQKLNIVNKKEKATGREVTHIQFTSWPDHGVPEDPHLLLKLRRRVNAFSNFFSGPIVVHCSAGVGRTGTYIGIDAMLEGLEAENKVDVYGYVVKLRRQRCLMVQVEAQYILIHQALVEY
Kind of data set: PTP inhibitory activity (p-NPP degradation), CD45. In kind it is biochemical. Conditions: p-NPP substrate, 37 °C, 30 min, 405 nm; mean ± SD, n = 3. Here is the method: as §1

A further data set has as its system two weeds. Details: method as in PMID 11076561. The conditions noted are these: cited from earlier work.
For the next data set, the system named is K. pneumonia. Details: method as in PMID 24736857. Conditions: cited from earlier work.
For another data set, the system named is α-glucosidase. The arrangement: method as in PMID 24436963. Conditions: cited from earlier work.
For the next data set, the system named is Staphylococcus aureus. The arrangement: method as in PMID 32449250. The conditions noted are these: cited from earlier work.
In the next data set the test system is A. sydowii DL1045. Kind of data set: effect of SAHA on growth and fermentation of A. sydowii DL1045. It is filed as cell-based, Aspergillus sydowii DL1045. Here is the method:
After A. sydowii DL1045 in rice extract culture medium was treated with three different histone deacetylase inhibitors, including suberoylanilide hydroxamic acid (SAHA), […] and nicotinamide, the fermentation status of the fungi was observed. […] The fermentation broth of A. sydowii DL1045 in the control group was dark green, whereas the fermentation broth in the 250 μM SAHA treatment group was golden yellow (Figure 1a,b). In addition, after 10 days, the weight of metabolites was 3.5 times lower in the SAHA group than in the control group (Figure S1, Supplementary Materials). […] This conjecture was confirmed by the results of scanning electron microscopy, and after 10 days of fermentation, the spores detached from the sporangium after maturation in the later stage of fermentation (Figure 1c).
A. sydowii DL1045 was retrieved from deep-sea mud sediment off the coast of Dalian, Liaoning Province, 121.55 °E and 38.88 °N, China. A. sydowii DL1045 was cultivated on potato dextrose agar (PDA) medium, consisting of 200 g/L of potato, 30 g/L of NaCl, 15 g/L of agar, and 20 g/L of dextrose and incubated for three days at 28 °C with 60% humidity. […]

For the compound `COC(=O)CCCCCCC(=O)Nc1ccccc1` [Compound S1, methyl 8-oxo-8-(phenylamino) octanoate], the HDAC inhibitory activity result with HDAC is given as “displayed HDAC inhibitory activity”.

The term IC50 denotes the concentration needed to halve the response being measured. Regarding `COc1ccc2c(c1)NC(=O)[C@@]21C=C2C(=O)N3CCC[C@H]3C(=O)N2[C@H]1C=C(C)C` [6-methoxyspirotryprostatin B], the IC50 in the data set with A-549 cells was 8.29 µM.

Take `Cc1cc(O)cc(OC(=O)c2c(C)cc(O)cc2O)c1` [Compound A9, lecanorin]: the IC50 against TCPTP is over 20 µM; against SHP1, 6.01 ± 0.18 µM; on PTP1B, 7.6 ± 0.21 µM; in the data set with nematode, over 100 µM; against CD45, 7.4 ± 0.08 µM. Moreover, the “inhibition of radicle growth and germination of two weeds” value in the data set with two weeds is “markedly inhibited the radicle growth and germination of the two weeds”.

In the case of `O=C(O)CCCCCCC(=O)Nc1ccccc1` [Compound S2, suberanilic acid], in the data set with HDAC, the HDAC inhibitory activity entry was “displayed HDAC inhibitory activity”.

For 14-hydroxyterezine D, the IC50 in the data set on A-549 cells was 7.31 µM.

Turning to `C/C(=C\CCC(C)C)c1ccc(CO)cc1O` [Compound A4, aspergillusene A], the IC50 at TCPTP was over 20 µM; against SHP1 it was 8.69 ± 0.26 µM; on PTP1B, 9.65 ± 0.73 µM; with nematode it was over 100 µM; against CD45, over 20 µM. In addition, in the data set on K. pneumonia, the “MIC against K. pneumonia” value is 21.4 mM (≈ 5010 µg/mL).

For `COc1ccc([C@H]2N[C@H](CO)[C@@H](O)[C@@H]2O)cc1O` [Compound A7, radicamine A], the α-glucosidase inhibitory activity result with α-glucosidase was “exhibit α-glucosidase inhibitory activity”.

Take `Cc1cc(Oc2cc(O)cc(C)c2C(=O)O)cc(O)c1C(=O)O` [Compound A13, diorcinol acid]: the IC50 on TCPTP was over 20 µM; against SHP1 it was 2.16 ± 0.23 µM; at PTP1B, over 20 µM; with nematode it was over 100 µM; at CD45, 4.46 ± 0.16 µM.

As to `Cc1cc(O)cc(Oc2cc(C)cc(O)c2)c1` [Compound A3, diorcinol], the IC50 against TCPTP is over 20 µM; at SHP1 it was 0.96 ± 0.02 µM; at PTP1B it was over 20 µM; in the data set with nematode it was 50 µM; against CD45, 4.03 ± 0.13 µM. The “MIC against K. pneumonia” value in the data set on K. pneumonia was 21.7 mM (≈ 5000 µg/mL).

As for `COC(=O)/C=C/c1cc(OC)c(OC)c(OC)c1` [Compound A6, methyl trimethoxycinnamate], the “inhibitory activity against Staphylococcus aureus” value in the data set on Staphylococcus aureus was “showed inhibitory activity against Staphylococcus aureus”.

With `C/C(=C/CCC(C)C)c1ccc(CO)cc1O` [(Z)-5-(Hydroxymethyl)-2-(6′) methylhept-2′-en-2′-yl)-phenol, reference compound], the “MIC against K. pneumonia” value in the data set on K. pneumonia is given as 10.7 mM (≈ 2510 µg/mL).

With `O=C(CCCCCCC(=O)Nc1ccccc1)NO` [SAHA, suberoylanilide hydroxamic acid], the “effect on mycelial growth and spore germination” value in the data set on A. sydowii DL1045 (250 μM SAHA, 10 days, scanning electron microscopy) is “inhibited mycelial growth and spore germination”. Also, the “weight of metabolites, times lower in SAHA group than in control group” value with A. sydowii DL1045 (after 10 days, ethyl acetate extract (Figure S1)) was 3.5 times.

For `COc1ccc2c(C[C@@H]3NC(=O)[C@@H]4CCCN4C3=O)c(C(=O)C=C(C)C)[nH]c2c1` [18-oxotryprostatin A], the IC50 in the data set on A-549 cells is 1.28 µM.
